Assay results taken from ChEMBL document CHEMBL6177980 (J Med Chem, 2025).
Activity calls are given as the source filed them. The calls are words filed in the database; no cut-off is given here.

How the values were obtained:
[1] = system: Severe fever with thrombocytopenia syndrome virus; assay: In vivo antiviral activity against SFTSV infected in mouse harboring IFNAR1tm1Agt assessed as improvement in lymphocytes percentage treated orally once daily for 7 days; assay type: functional, organism-based; settings: dose 2.5-100 mg/kg, route po, time 7.0 day
[2] = system: Severe fever with thrombocytopenia syndrome virus; assay: In vivo antiviral activity against SFTSV infected in mouse harboring IFNAR1tm1Agt assessed as improvement in lymphocytes percentage at 300 mg/kg, po qd treated for 7 days relative to control; assay type: functional, organism-based; settings: time 7.0 day

Compound	Activity [1]	Activity [2]
CC(C)C(=O)OC[C@@]1(F)O[C@@H](n2ccc(=O)n(COC(=O)c3cccnc3)c2=O)[C@H](OC(=O)C(C)C)[C@@H]1OC(=O)C(C)C	Dose-dependent-effect	
NC(=O)c1nc(F)cnc1O		Active
